Results published in ChEMBL document CHEMBL5126608, “Development, Optimization, and In Vivo Validation of New Imidazopyridine Chemotypes as Dual TLR7/TLR9 Antagonists through Activity-Directed Sequential Incorporation of Relevant Structural Subunits” (J Med Chem, 2022).
pIC50: −log10 of the molar value. In brackets after ≈: the same amount, converted by molar mass.

Legend:
[1] = molecular target: T1, Toll-like receptor 9 (Homo sapiens, UniProt Q9NR96); assay: Antagonist activity at human TLR9 expressed in HEK-blue hTLR9 cells assessed as inhibition of CpGB-induced NFkappaB activation preincubated with compound for 1 hrs followed by CpGB addition and measured next day by SEAP-based spectrophotometry assay; assay type: cell-based
T1 sequence (Q9NR96 whole entry): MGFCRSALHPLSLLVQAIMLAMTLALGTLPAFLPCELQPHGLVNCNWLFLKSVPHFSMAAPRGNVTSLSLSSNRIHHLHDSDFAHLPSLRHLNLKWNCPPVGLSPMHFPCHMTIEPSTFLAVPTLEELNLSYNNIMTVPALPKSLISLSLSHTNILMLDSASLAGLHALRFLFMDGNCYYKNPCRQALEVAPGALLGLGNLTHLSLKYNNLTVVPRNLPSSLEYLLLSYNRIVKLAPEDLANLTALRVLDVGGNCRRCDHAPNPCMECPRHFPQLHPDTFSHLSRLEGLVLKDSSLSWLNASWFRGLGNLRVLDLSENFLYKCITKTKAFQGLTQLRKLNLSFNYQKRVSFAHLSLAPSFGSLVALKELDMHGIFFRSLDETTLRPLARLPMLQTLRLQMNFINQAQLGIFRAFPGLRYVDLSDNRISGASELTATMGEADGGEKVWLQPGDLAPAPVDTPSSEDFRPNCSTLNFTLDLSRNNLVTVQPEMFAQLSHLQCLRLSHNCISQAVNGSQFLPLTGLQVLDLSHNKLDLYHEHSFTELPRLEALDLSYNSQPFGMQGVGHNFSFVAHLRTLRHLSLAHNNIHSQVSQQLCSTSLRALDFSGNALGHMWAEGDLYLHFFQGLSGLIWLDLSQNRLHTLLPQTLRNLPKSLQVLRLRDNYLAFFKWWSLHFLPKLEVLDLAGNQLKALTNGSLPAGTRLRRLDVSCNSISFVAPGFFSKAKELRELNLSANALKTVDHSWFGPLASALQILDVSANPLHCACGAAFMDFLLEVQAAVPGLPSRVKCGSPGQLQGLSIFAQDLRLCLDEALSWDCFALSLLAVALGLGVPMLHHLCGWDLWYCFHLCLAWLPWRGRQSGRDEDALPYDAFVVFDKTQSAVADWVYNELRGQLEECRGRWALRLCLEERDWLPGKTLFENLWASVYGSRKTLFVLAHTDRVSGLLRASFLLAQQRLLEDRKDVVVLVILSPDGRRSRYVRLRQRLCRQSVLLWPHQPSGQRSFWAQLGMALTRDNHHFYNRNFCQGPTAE

[2] = molecular target: T2, Toll-like receptor 7 (Homo sapiens, UniProt Q9NYK1)
T2 sequence (Q9NYK1 whole entry): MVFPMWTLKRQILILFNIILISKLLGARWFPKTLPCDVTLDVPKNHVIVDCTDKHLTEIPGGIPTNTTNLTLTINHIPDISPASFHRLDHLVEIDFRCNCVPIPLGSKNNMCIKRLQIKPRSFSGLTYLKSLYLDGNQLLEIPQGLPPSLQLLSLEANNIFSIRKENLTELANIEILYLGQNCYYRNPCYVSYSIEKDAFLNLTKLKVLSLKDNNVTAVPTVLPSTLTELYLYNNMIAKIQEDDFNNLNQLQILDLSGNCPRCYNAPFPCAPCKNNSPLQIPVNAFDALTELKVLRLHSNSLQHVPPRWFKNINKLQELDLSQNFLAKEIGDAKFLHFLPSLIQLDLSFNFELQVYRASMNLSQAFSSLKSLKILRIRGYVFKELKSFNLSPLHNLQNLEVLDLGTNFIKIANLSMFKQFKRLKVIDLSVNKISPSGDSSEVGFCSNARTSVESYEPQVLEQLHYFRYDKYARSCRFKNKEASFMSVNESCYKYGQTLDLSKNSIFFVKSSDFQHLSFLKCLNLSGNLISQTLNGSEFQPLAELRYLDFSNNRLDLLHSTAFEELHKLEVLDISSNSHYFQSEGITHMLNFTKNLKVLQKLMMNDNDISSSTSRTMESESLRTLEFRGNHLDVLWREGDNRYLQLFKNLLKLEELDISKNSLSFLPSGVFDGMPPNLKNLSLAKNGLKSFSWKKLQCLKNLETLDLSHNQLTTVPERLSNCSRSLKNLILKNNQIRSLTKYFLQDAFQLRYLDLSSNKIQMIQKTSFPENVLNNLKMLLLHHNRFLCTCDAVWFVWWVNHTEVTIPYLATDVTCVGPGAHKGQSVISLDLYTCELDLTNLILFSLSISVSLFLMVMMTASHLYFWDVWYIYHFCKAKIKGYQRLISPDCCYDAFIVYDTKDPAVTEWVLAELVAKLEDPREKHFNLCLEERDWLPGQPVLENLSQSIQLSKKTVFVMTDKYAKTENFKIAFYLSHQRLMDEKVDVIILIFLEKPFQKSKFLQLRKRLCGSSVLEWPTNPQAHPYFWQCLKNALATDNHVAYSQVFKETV

[3] = Stability in mouse plasma assessed as parent compound remaining at 1 uM measured after 2 hrs by LC-MS/MS analysis
[4] = Stability in human plasma assessed as parent compound remaining at 1 uM measured after 2 hrs by LC-MS/MS analysis
[5] = in vitro; details: human, microsomes
Description: Metabolic stability in human liver microsomes assessed as half life at 5 uM measured for 60 mins by LC-MS/MS analysis

[6] = in vitro; details: mouse, microsomes
Description: Metabolic stability in mouse liver microsomes assessed as half life at 5 uM measured for 60 mins by LC-MS/MS analysis

[7] = physchem; details: buffer, pH 7.4
[8] = physchem; details: octanol/water
Description: 1-Octanol/phosphate buffer partition coefficient, logD of the compound measured after 4.5 hrs by HPLC-UV analysis

[9] = molecular target: T1, Toll-like receptor 9
[10] = Efflux ratio of apparent permeability across basolateral to apical side to apical to basolateral side in human Caco-2 cells measured after 120 mins by LC-MS/MS analysis
[11] = Apparent permeability across basolateral to apical side in human Caco-2 cells measured after 120 mins by LC-MS/MS analysis
[12] = Apparent permeability across apical to basolateral side in human Caco-2 cells measured after 120 mins by LC-MS/MS analysis

SMILES | pIC50 [1] | pIC50 [2] | further results
COc1ccc(-c2cn3ccc(N)cc3n2)cc1 | 5.53 | – | –
COc1ccc(-c2cn3ccc(N4CCN(C(=O)OC(C)(C)C)CC4)cc3n2)c(OCCCN2CCOCC2)c1 | 6.50 | 5.53 | –
COc1ccc(-c2cn3ccc(N4CCNCC4)cc3n2)c(OCc2ccccc2)c1 | 7.26 | 5.95 | –
COc1ccc(-c2cn3ccc(NCCCN4CCOCC4)cc3n2)c(OC)c1 | 7.16 | – | –
COc1ccc(-c2cn3ccc(NCCCn4ccnc4)cc3n2)c(OC)c1 | 7.42 | 6.09 | –
COc1ccc(-c2nc3cc(N4CCN(C5CCCC5)CC4)ccn3c2CN2CCOCC2)c(OC)c1 | 6.85 | 5.67 | –
COc1ccc(-c2nc3cc(N4CCN(C5CCCC5)CC4)ccn3c2CN2CCCC2)c(O)c1 | 6.61 | 4.60 | –
COc1ccc(-c2cn3ccc(N4CCN(C5CCCC5)CC4)cc3n2)c(OCc2ccccc2)c1 | 6.82 | 5.25 | –
COc1ccc(-c2nc3cc(N4CCN(C(C)C)CC4)ccn3c2CN2CCOCC2)c(OC)c1 | 7.40 | 5.60 | –
COc1ccc(-c2cn3ccc(N4CCNCC4)cc3n2)cc1 | 6.10 | 6.25 | –
CC(C)[N+](C)(CCOC(=O)C1c2ccccc2Oc2ccccc21)C(C)C [PROPANTHELINE] | – | – | remaining at 2 h, 1 µM [3]: 0%; remaining at 2 h, 1 µM [4]: 0%
COc1ccc(-c2cn3ccc(NCCN4CCOCC4)cc3n2)c(OC)c1 | 7.31 | 5.47 | –
COc1ccc(-c2cn3ccc(N4CCNCC4)cc3n2)c(OCCCN2CCOCC2)c1 | 7.46 | 5.87 | –
COc1ccc(-c2cn3ccc(N4CCN(C5CCCC5)CC4)cc3n2)c(OC)c1 | 7.31 | 5.63 | half-life at 1 h, 5 µM [5]: 37.6 min; half-life at 1 h, 5 µM [6]: 31.8 min; solubility kinetic at 24 h, 500 µM [7]: 10.2 µg/mL (≈ 25.1 µM); remaining at 2 h, 1 µM [3]: 93.4%; logD at 4.5 h [8]: 2.13; remaining at 2 h, 1 µM [4]: 64.9%
COc1ccc(-c2cn3ccccc3n2)c(OC)c1 | 4.98 | – | –
COc1ccc(-c2cn3ccc(N4CCN(C(C)C)CC4)cc3n2)c(OC)c1 | 7.40 | – | pIC50 [9]: 7.55
COc1ccc(-c2nc3cc(N4CCN(C(C)C)CC4)ccn3c2CN2CCCC2)c(OC)c1 | 7.82 | – | –
COc1ccc(-c2cn3ccc(N4CCN(C5CCCC5)CC4)cc3n2)c(O)c1 | 6.10 | 4.68 | –
COc1ccc(-c2cn3ccc(N4CCN(C(=O)C5CCCC5)CC4)cc3n2)c(OCc2ccccc2)c1 | 5.29 | – | –
COc1ccc(-c2cn3ccc(N(C)C)cc3n2)c(OC)c1 | 6.12 | 5.42 | –
COc1ccc(-c2nc3ccccn3c2N)c(OC)c1 | – | < 4.52 | –
CCCSc1ccc2nc(NC(=O)OC)[nH]c2c1 [ALBENDAZOLE] | – | – | solubility kinetic at 24 h, 500 µM [7]: 2.2 µg/mL (≈ 8.29 µM)

SMILES | pIC50 [1] | pIC50 [2] | further results
COc1ccc(-c2cn3ccc(N4CCN(C5CCCC5)CC4)cc3n2)c(OCCCN2CCCC2)c1 | 7.77 | – | –
COc1ccc(-c2cn3ccc(N4CCNCC4)cc3n2)c(OC)c1 | 7.34 | – | –
COc1ccc(-c2nc3cc(N4CCN(C5CCCC5)CC4)ccn3c2NCc2ccccc2)c(OC)c1 | 6.28 | 5.32 | –
COc1ccc(-c2cn3ccc(N4CCN(C(=O)c5ccc(F)cc5)CC4)cc3n2)c(OCc2ccccc2)c1 | 5.66 | 4.96 | –
COc1ccc(-c2cn3ccc(N4CCN(C(C)C)CC4)cc3n2)cc1 | 7.36 | 5.91 | half-life at 1 h, 5 µM [5]: 66 min; half-life at 1 h, 5 µM [6]: 29.4 min; solubility kinetic at 24 h, 500 µM [7]: 46.1 µg/mL (≈ 131 µM); remaining at 2 h, 1 µM [3]: 92.8%; logD at 4.5 h [8]: 1.64; remaining at 2 h, 1 µM [4]: 60.4%
COc1ccc(-c2cn3ccc(N4CCN(C5CCCC5)CC4)cc3n2)cc1 | 7.15 | 5.48 | –
COc1ccc(-c2cn3ccc(N4CCN(C(=O)c5ccccc5)CC4)cc3n2)c(OCc2ccccc2)c1 | 5.97 | 4.60 | –
CN(C)c1ccn2cc(-c3ccccc3)nc2c1 | 5.66 | – | –
CC(C)NCC(O)COc1cccc2ccccc12 (stereo not drawn) [PROPRANOLOL] | – | – | efflux ratio at 2 h [10]: 1.2; Papp B→A at 2 h [11]: 17.3 ×10⁻⁶ cm/s; Papp A→B at 2 h [12]: 14.4 ×10⁻⁶ cm/s
COc1ccc(-c2cn3ccc(N4CCNCC4)cc3n2)c(OCCCN2CCCC2)c1 | 7.03 | – | –
COc1ccc(-c2nc3cc(N4CCN(C(=O)C5CCCC5)CC4)ccn3c2CN2CCCC2)c(OC)c1 | 5.95 | 5.59 | –
COc1ccc(-c2nc3cc(N4CCN(C5CCCC5)CC4)ccn3c2CN2CCCC2)c(OC)c1 | 7.41 | – | –
COc1ccc(-c2cn3ccc(N4CCN(C(=O)C5CCCC5)CC4)cc3n2)c(OC)c1 | 5.54 | 5.06 | –
COc1ccc(-c2cn3ccc(N4CCN(C5CCCC5)CC4)cc3n2)c(OCCCN2CCOCC2)c1 | 7.55 | 6.32 | efflux ratio at 2 h [10]: 0.5; solubility kinetic at 24 h, 500 µM [7]: 2.6 µg/mL (≈ 5 µM); Papp B→A at 2 h [11]: 8.17 ×10⁻⁶ cm/s; remaining at 2 h, 1 µM [3]: 90.6%; remaining at 2 h, 1 µM [4]: 94.3%; Papp A→B at 2 h [12]: 15.4 ×10⁻⁶ cm/s
COc1ccc(-c2cn3ccc(NCCCN4CCOCC4)cc3n2)cc1 | 7.17 | 5.97 | –
COc1ccc(-c2cn3ccc(N4CCN(C(=O)C5CCCC5)CC4)cc3n2)c(O)c1 | 5.67 | – | –
COc1ccc(-c2cn3ccc(N4CCN(C(=O)OC(C)(C)C)CC4)cc3n2)c(OCCCN2CCCC2)c1 | 6.80 | – | –
COc1ccc(-c2cn3ccc(N)cc3n2)c(OC)c1 | 5.80 | – | –
COc1ccc(-c2nc3cc(N4CCN(C5CCCC5)CC4)ccn3c2NC2CCCCC2)c(OC)c1 | 5.68 | 5.17 | –
COc1ccc(-c2nc3cc(N4CCN(C5CCCC5)CC4)ccn3c2CN2CCCC2)c(OCc2ccccc2)c1 | 6.62 | – | –
COc1ccc(-c2cn3ccc(N(C)C)cc3n2)cc1 | 5.83 | – | –
